Experimental data taken from BindingDB's records for patent US9180116 (Cayman Chemical, 2015).

Legend:
Details in all cases: 37 °C
[1] = target: T1, Prostaglandin E2 receptor EP4 subtype (Rattus norvegicus, UniProt P43114); assay: cAMP Assay
Procedure: Seed cells on an EP2 or EP4 STEP plate at a density of 40,000-80,000 cells/well in 200 uL of reduced serum medium containing 0.5% FBS. Place the plate in a 37° C. incubator with 5% CO2 and incubate overnight. […] After 16-18 hours of incubation, aspirate the culture media from each well. […] Add 200 ul of culture medium containing 500 uM IBMX (an inhibitor of cAMP phosphodiesterase) and different concentration of test compounds to the assigned wells. For each test compound, at least 8 concentrations starting at highest 10 M and lowest 0.01 pM were tested. In addition each concentration had triplicates. […] Incubate the cells in a cell culture incubator for 30 minutes. […] Centrifuge the plate at 1,000x rpm for 10 minutes. […] Aspirate the supernatant.

[2] = target: T1, Prostaglandin E2 receptor EP4 subtype; assay: SEAP Activity Assay
Procedure: (§1) 1. Seed cells on an EP2 or EP4 STEP plate at a density of 40,000-80,000 cells/well in 200 ul of reduced serum medium containing 0.5% FBS. Place the plate in a 37° C. incubator with 5% CO2 and incubate overnight. 2. After 16-18 hours of incubation, aspirate the culture media from each well. 3. Add 200 ul of culture medium containing different concentration of test compounds to the assigned wells. For each test compound, at least 8 concentrations starting at highest 10 M and lowest 0.01 pM were tested. In addition each concentration had triplicates. […] 4. […] Cover the plate with the lid.

[3] = target: Prostaglandin E2 receptor EP2 subtype (Rattus norvegicus, UniProt Q62928); assay: SEAP Activity Assay
Sequence of Prostaglandin E2 receptor EP2 subtype (Q62928 whole entry): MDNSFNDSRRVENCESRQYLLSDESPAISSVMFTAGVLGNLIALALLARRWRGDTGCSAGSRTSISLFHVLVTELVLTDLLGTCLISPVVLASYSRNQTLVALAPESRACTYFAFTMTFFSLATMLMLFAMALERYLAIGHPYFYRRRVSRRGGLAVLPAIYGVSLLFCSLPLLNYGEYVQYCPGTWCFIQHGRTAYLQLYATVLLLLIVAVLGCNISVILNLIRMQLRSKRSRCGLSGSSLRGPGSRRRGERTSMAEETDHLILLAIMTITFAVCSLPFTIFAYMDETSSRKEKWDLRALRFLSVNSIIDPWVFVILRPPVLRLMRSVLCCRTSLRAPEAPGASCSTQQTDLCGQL
Procedure: as §1

T1 sequence (P43114 whole entry): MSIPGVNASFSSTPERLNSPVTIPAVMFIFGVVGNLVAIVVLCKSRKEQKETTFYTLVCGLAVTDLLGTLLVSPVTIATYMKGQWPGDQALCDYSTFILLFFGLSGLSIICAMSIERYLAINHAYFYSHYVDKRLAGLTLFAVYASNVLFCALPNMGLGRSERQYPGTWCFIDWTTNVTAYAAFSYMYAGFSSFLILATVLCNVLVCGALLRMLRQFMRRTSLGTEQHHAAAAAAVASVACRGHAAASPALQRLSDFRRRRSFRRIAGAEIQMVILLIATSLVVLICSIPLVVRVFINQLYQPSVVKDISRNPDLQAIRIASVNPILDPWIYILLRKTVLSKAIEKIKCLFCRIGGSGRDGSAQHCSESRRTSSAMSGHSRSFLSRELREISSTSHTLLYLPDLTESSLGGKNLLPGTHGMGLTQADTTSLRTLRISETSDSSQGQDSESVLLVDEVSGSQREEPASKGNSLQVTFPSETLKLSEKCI

Structure (SMILES)	EC50 [1] [µM]	EC50 [2] [µM]	EC50 [3] [µM]
C[C@@H](CCc1ccccc1)[C@H](O)/C=C/[C@H]1CC(F)(F)C(=O)N1CCCc1ccc(C(=O)O)s1 [US9180116, 37C]	0.00015	–	–
CCC#CC[C@H](C)[C@H](O)/C=C/[C@H]1CC(F)(F)C(=O)N1CCCc1ccc(C(=O)O)s1 [US9180116, 24D]	0.00073	0.00011	0.763
C[C@@H](CCc1ccccc1)[C@@H](O)/C=C/[C@H]1CC(F)(F)C(=O)N1CCCc1ccc(C(=O)O)s1 [US9180116, 37D]	0.198	–	0.743
